Literature values in patent publication US20140271931A1, “Anti-Acne Topical Films” (Perosphere Inc., priority 2013, published 2014).

Assays:
[1] = system: cultured normal and transformed mammalian cells

Row | solubility in water | Compound | inhibition of growth of cultured normal and transformed mammalian cells [1] | penetration of the cell interior compared with picolinic acid (cell interior)
1 | readily soluble in water | O=C(O)c1ccccn1 [Picolinic acid, 2-pyridine carboxylic acid] | inhibits the growth | –
2 | – | CCCCc1ccc(C(=O)O)nc1 [Fusaric acid] | – | penetrates the cell interior much more easily than picolinic acid
